Results from article PMC8805605, “Discovery of Dimeric Arylsulfonamides as Potent ADAM8 Inhibitors” (ACS Medicinal Chemistry Letters, 2021).

system: MDA-MB-231 cells; experiment: Matrigel invasion assay; assay type: cell-based; settings: MDA-MB-231 cells pretreated with inhibitors for 24 h; control 69.07 ± 5.26%
Description: Figure 5 Effects of compounds 1–3 and JG26 on cancer cell invasion. MDA-MB-231 cells were pretreated with inhibitors for 24 h prior to the assay. Boxplot of invaded cells in %. Results are obtained from three independent experiments with counting of five randomly chosen viewing fields. One-way ANOVA was performed to determine statistical significance with * p < 0.05 and *** p < 0.001. […]
Thincerts of […] pore size, translucent (Greiner BioOne) were transferred into 24-well plates. Each insert was loaded with 75 µL Matrigel (BD Biosciences), 1:1 diluted with serum-free medium DMEM.
After 1 hour, thincerts were turned upside down and 25000 MDA-MB-231 cells, pretreated with vehicle (DMSO) or 20 µM inhibitors (JG26 and compounds 1-3 in DMSO) for 24 hours in DMEM/0.5 % FCS were seeded on the lower side and incubated for 3-4 hours so that cell can adhere to the membrane. To induce cell invasion, DMEM/20% FCS was applied to the upper chamber in order to […]
form a concentration gradient. After 18 hours, cells were fixed with 3.7 % paraformaldehyde and stained with 4’,6-Diamidin-2-phenylindol (DAPI) to detect cell nuclei. Quantification of cell invasion was performed using a confocal microscope by stacked imaging. Cell nuclei present in the upper and the lower chamber were counted in 5 randomly chosen viewing fields and the amount of invasion was calculated in percent as the ratio between invaded cells/non-invaded cells x 100. Experiments were repeated 3 times, counting 5 random viewing fields per well, respectively.
Protein extraction and Western Blot analysis
After 48 h, total protein extraction was performed by detaching the cells with a cell scraper. Cells were washed with PBS, resuspended in 50 μL RIPA (50 mM HEPES pH 7.4; 150 mM NaCl; 1% (v/v) NP-40; 0.5% (w/v) Natriumdeoxycholate; 0.1% (w/v) SDS; 10 mM Phenantrolin; 10 mM EDTA; PierceTM Protease Inhibitor Mini Tablets, EDTA-free, Thermo Scientific; PierceTM Phosphatase Inhibitor Mini Tablets, Thermo Scientific) and incubated for 30 min on ice. […]
2% (w/v) SDS; 10% (w/v) Glycerol; 5% (v/v) ß-Mercaptoethanol; 0.01% (w/v) Bromphenol-Blue) for 5 min. The proteins were separated by 10% SDS-PAGE and subsequently transferred on a nitrocellulose membrane (GE Healthcare). The membrane was then blocked with 5% (w/v) milk powder (MP) in TBST (50 mM Tris, pH 7.5; 150 mM NaCl; 0.1% (w/v) Tween-20) for 1 h and probed with the following primary antibodies: anti-beta Tubulin (NB600-936, Novus Biological, 1:2000), anti- […]
Cell Signaling, 1:2000) and anti-pAkt (4060, Cell Signaling, 1:2000) at 4°C overnight. After washing the 3x with TBST, the membrane was incubated with horseradish peroxidase-conjugated secondary antibodies for 1 h (abcam, 1:5000) followed by a repeated washing step. […]

Row | Structure (SMILES) | Invaded cells [%]
1 | NC(=O)NCCC[C@@H](NS(=O)(=O)c1ccc(OCc2cc(Br)cc(Br)c2)cc1)C(=O)NO [JG26, reference compound] | 59.87 ± 12.27
2 | O=C(NCCC[C@@H](NS(=O)(=O)c1ccc(OCc2cc(Br)cc(Br)c2)cc1)C(=O)NO)c1cccc(C(=O)NCCC[C@@H](NS(=O)(=O)c2ccc(OCc3cc(Br)cc(Br)c3)cc2)C(=O)NO)c1 [Compound 2] | 50.8 ± 11.4
3 | O=C(NCCC[C@@H](NS(=O)(=O)c1ccc(OCc2cc(Br)cc(Br)c2)cc1)C(=O)NO)NCCC[C@@H](NS(=O)(=O)c1ccc(OCc2cc(Br)cc(Br)c2)cc1)C(=O)NO [Compound 3] | 52.9 ± 9.14
4 | O=C(CCCNC(=O)c1cccc(C(=O)NCCCC(=O)NCCC[C@@H](NS(=O)(=O)c2ccc(OCc3cc(Br)cc(Br)c3)cc2)C(=O)NO)c1)NCCC[C@@H](NS(=O)(=O)c1ccc(OCc2cc(Br)cc(Br)c2)cc1)C(=O)NO [Compound 1] | 57.25 ± 7.24
